# Square brackets hold non-standard residues; d marks the D form. Peptide text beside a SMILES is read from it. * marks the point of attachment. NQ = N-(2-chloro-1,4-naphthoquinonyl)-β-alanine, O=C1C(Cl)=C(NCCC(=O)*)C(=O)c2ccccc21; Glutaryl(OAqm) = O=C(CCCC(=O)*)OCc1ccc2c(c1)C(=O)c1ccccc1C2=O; X1 = O=C1c2cc(O)cc(O)c2C(=O)c2c(O)cc(C(=O)*)cc21; d(pGlu) = O=C1CC[C@H](C(=O)O)N1; pGlu = O=C1CC[C@@H](C(=O)O)N1; Emo = not defined here
# Legend:
# [1] = target: T1, rat pituitary GnRH receptors (Rattus norvegicus, UniProt P30969); assay: Displacement binding assay with 125I[D-Lys6]GnRH on rat pituitary membranes; conditions: for binding affinity to GnRH receptors (in words): FIG. 11; for increase of binding affinity to GnRH receptors compared to the parent peptide: vs [D-Lys6]GnRH; for IC50: Table 3, estimated IC50, 125I-[D-Lys6]GnRH tracer
# T1 construct: from tissue; host or cells: rat pituitary membranes (Wistar-derived rats)
# T1 sequence (P30969 1-327): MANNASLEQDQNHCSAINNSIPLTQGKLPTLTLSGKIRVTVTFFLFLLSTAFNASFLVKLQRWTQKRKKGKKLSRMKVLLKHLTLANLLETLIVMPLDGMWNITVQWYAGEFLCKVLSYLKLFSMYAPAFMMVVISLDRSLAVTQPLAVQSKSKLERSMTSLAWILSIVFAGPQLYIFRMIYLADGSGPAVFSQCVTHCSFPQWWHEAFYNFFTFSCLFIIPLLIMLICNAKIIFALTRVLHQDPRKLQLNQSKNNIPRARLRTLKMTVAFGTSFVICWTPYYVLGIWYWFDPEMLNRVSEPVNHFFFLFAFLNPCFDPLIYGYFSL
# Experimental: Specific binding was calculated by subtracting the non-specific binding from the maximal binding, determined in the absence of any competing peptide. Results are the mean of two experiments carried out in triplicates. SEM values are omitted for clarity (FIG. 3).
# [2] = target: T2, human serum albumin (HSA) (Homo sapiens, UniProt P02768); assay: Binding to HSA; assay type: in vitro ADME; conditions: 37° C., 3 h; FIG. 8
# T2 construct: purchased Sigma, St. Louis, Mo
# T2 sequence (P02768 25-609): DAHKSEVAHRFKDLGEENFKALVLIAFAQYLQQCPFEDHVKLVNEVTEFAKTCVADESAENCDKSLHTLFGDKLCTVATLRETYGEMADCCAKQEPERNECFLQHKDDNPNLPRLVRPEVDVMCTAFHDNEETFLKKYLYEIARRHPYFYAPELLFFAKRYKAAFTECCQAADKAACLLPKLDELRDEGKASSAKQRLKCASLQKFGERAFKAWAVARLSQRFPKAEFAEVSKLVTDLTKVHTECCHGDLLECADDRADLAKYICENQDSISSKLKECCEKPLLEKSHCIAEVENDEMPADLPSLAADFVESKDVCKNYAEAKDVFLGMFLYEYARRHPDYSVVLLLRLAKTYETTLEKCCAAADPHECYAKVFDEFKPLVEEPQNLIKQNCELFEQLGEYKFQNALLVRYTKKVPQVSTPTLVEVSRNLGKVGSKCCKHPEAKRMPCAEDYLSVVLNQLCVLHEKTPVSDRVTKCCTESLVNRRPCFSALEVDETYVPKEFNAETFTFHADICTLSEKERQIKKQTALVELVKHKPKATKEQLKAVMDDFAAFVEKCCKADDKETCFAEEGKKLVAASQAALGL
# Experimental: The concentration of HSA in the solution was determined using a molar extinction coefficient of 39,000 M^−1 cm^−1 at 277.5 nm^33. The unbound compound was then separated from the HSA solution by applying it on to a Centricon® concentrator column (Amicon Inc., Beverly, Mass.) with a band pass membrane of […] according to the manufacture's protocol. The HSA bound compound (˜20 μL) was then precipitated by adding it to acetonitrile (1 mL). The supernatant was kept and the precipitate was dissolved in PBS (100 μL) and re-precipitated. The combined supernatants were evaporated, the residue was dissolved in water containing 0.1% TFA (buffer A) and analyzed by HPLC to determine the amount of the tested compounds. Results represent the mean of two experiments (FIG. 8).
# [3] = tested on: αT3-1 cells; assay: In vitro toxicity / phototoxicity (XTT cell survival); assay type: cell-based, mouse
# Experimental: αT3-1 cells (50,000 cells/well) were plated in 96-well tissue culture plates in 0.1 mL of complete medium. After 24 h the medium was changed and cells were incubated in the same medium (without serum and phenol red) containing different concentrations of the tested compounds for 4 h at 37° C. The cells were then washed (×3) with PBS and illuminated (λmax=400 nm) in PBS. The fluence rate was 14.3 mW cm^−2 with a total fluence of 17 J cm^−2. Following illumination the media were replaced by complete medium and the plates were incubated for additional 24 h at 37° C. Cell survival was determined using the XTT (Biological Industries, Beit-Haemek, Israel) kit following the manufacture's protocol. Values are expressed as % survival.
# [4] = tested on: αT3-1 cells; assay: DNA fragmentation assay; assay type: cell-based, mouse; conditions: 10 μM, FIG. 10
# Experimental: FIG. 10. DNA cleavage in cells treated with [D-Lys^6(Emo)]GnRH and emodic acid. αT3-1 cells were incubated; in darkness with 10 μM of the tested compounds, washed and illuminated. After 24 h of incubation DNA was isolated and analyzed by gel electrophoresis. Lanes 1, 3 and 5 represent DNA of cells treated with 1% DMSO in PBS, emodic acid or [D-Lys^6(Emo)]GnRH, respectively, followed by illumination. Lane 2, 4 and 6 represent cells treated with 1% DMSO in PBS, emodic acid, or [D-Lys^6(Emo)]GnRH, respectively, in darkness.
# αT3-1 cells (×10^6/dish) were incubated in phenol red and serum free complete medium (37° C., 5% CO2) with the tested compounds for 5 h in the dark. Cells were then washed with PBS (×3) and illuminated or remained in darkness as described earlier. The media were then replaced by complete medium and cells were incubated for additional 24 h. DNA was then isolated, using Wizard® genomic DNA purification kit (Promega, Madison, Wis.) following the company's protocol and analyzed by gel electrophoresis (0.4% cross linked agarose, ethidium bromide staining).
# [5] = Relative hydrophobicity by elution from RP-18 HPLC column; assay type: physicochemical; conditions: percent of buffer B in which the analog was eluted from RP-18 column
# Excerpt: All chemicals and reagents were of analytical grade. Rink amide resin, 9-fluorenylmethoxycarbonyl (Fmoc) protected amino acid derivatives, and all the reagents for solid-phase peptide synthesis were purchased from Novabiochem (Läufelfingen, Switzerland). Side-chain protecting groups employed for peptide synthesis were as follows: Arg, 2,2,4,6,7-pentamethyldihydrobenzofuran-5-sulfonyl (Pbf); His, trityl (Trt); D-Lys, 4-methyltrityl (Mtt) or tert-butyloxycarbonyl (Boc); Trp, tert-butyloxycarbonyl (Boc); Ser and Tyr, tert-butyl (tBu). Reversed phase HPLC was performed on a Spectra-Physics SP-8800 liquid chromatography system equipped with an Applied Biosystems 757 variable wavelength absorbance detector. HPLC prepacked columns were: Lichrocart, containing Lichrosorb RP-18 (250×10 mm; 7 μm, Merck, Darmstadt, Germany) for semi-preparative purification and Lichrospher 100 RP-18 (250×4 mm; 5 μm, Merck, Darmstadt, Germany) and wide pore butyl C4 (250×4.6 mm; 5 μm, J. T. Baker Inc., Phillipsburg, N.J.) for analytical purposes. HPLC purification and analysis were achieved by using a linear gradient established between 0.1% trifluoroacetic acid […] in water as buffer A and 0.1% TFA in 75% aqueous acetonitrile as buffer B. Eluent composition was 10-100% B over 40 mlin, using RP-18 column, and a gradient of 0-100% B over 40 min employing a wide pore butyl (C4) column. N-(2noro-1,4-naphtoqumonyl)-β-alanine (NQ), 1,6,8-Trihydroxy-3-carboxylic acid-anthraquinone (Emo) and 2-hydroxymethyl-anthraquinone hemiglutarate (AntrQ) were synthesized as described^14,24,27 (for chemical structure see FIG. 1).
# [6] = literature ref 14; cited from earlier work
# [7] = tested on: human breast and prostate cancer; conditions: literature ref 14; cited from earlier work
# [8] = literature ref 5; cited from earlier work
# [9] = tested on: LH release; assay: In vivo LH release after intraperitoneal administration; design: species or system rat; conditions: 20 nmol/rat
# Experimental: The ability of [D-Lys^6(Emo)]GnRH to bind GnRH receptors and promote LH release in vitro, prompted the evaluation of its in vivo activity.
# Blood samples were withdrawn by cardiac puncture under light ether anesthesia at the indicated time intervals, and serum LH levels were determined by RIA as described above (FIG. 6). Results are the mean±SEM of LH concentrations in the serum of five animals/experimental group. The LH concentration was determined using three different dilutions of each serum sample. Similar results were obtained in two other experiments.
# [10] = target: T3, rat pituitary GnRH receptor (rat, UniProt P30969 1-327); assay: displacement of 125I[D-Lys6]GnRH from rat pituitary membranes
# T3 construct: whole, on cells; Native receptor; also called GnRH receptors; rat pituitary receptors
# T3 sequence (looked up): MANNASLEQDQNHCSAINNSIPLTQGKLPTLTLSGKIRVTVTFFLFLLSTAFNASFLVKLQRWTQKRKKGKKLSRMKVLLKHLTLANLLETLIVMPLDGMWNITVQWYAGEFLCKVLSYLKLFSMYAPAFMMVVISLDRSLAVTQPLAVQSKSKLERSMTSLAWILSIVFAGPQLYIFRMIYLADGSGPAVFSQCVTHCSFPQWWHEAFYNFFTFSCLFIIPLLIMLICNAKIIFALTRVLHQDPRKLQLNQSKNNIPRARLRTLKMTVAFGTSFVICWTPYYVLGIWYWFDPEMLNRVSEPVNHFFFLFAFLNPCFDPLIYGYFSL
# Experimental: Briefly, membranes were incubated for 90 min at 4° C. with ¹²⁵I[D-Lys⁶]GnRH and with the unlabeled peptides. Non-specific binding was defined as the residual binding in the presence of excess [D-Lys⁶]GnRH (1 μM). Specific binding was calculated by subtracting the non-specific binding from the maximal binding, determined in the absence of any competing peptide. Results are the mean of two experiments carried out in triplicates. SEM values are omitted for clarity (FIG. 3).
# [11] = target: T3, rat pituitary GnRH receptor; assay: displacement of 125I[D-Lys6]GnRH from proestrous rat pituitary membranes
molecule,measurement,setting,value
"[D-Pyr^1, D-Phe^2, D-Trp^3, D-Lys^6]GnRH ([d(pGlu)][dF][dW]SY[dK]LRPG-NH2; SMILES CC(C)C[C@H](NC(=O)[C@@H](CCCCN)NC(=O)[C@H](Cc1ccc(O)cc1)NC(=O)[C@H](CO)NC(=O)[C@@H](Cc1c[nH]c2ccccc12)NC(=O)[C@@H](Cc1ccccc1)NC(=O)[C@H]1CCC(=O)N1)C(=O)N[C@@H](CCCNC(=N)N)C(=O)N1CCC[C@H]1C(=O)NCC(N)=O)",binding affinity to GnRH receptors (in words),[1],lower binding affinity to GnRH receptor as compared to [D-Lys^6]GnRH
O=C(O)c1cc(O)c2c(c1)C(=O)c1cc(O)cc(O)c1C2=O [emodic acid],binding to HSA,[2],binds to HSA
same,phototoxicity to αT3-1 cells,"[3]; 10 μM, illuminated, FIG. 9",significant phototoxicity
same,toxicity to αT3-1 cells in the dark,[3]; incubated in the dark,did not show any toxicity
same,DNA fragmentation in the dark,[4]; darkness,did not cause any DNA fragmentation
same,DNA fragmentation upon illumination,[4]; illuminated,induced DNA fragmentation
"CC(C)C[C@H](NC(=O)[C@@H](CCCCNC(=O)CCCC(=O)OCc1ccc2c(c1)C(=O)c1ccccc1C2=O)NC(=O)[C@H](Cc1ccc(O)cc1)NC(=O)[C@H](CO)NC(=O)[C@H](Cc1c[nH]c2ccccc12)NC(=O)[C@H](Cc1c[nH]cn1)NC(=O)[C@@H]1CCC(=O)N1)C(=O)N[C@@H](CCCNC(=N)N)C(=O)N1CCC[C@H]1C(=O)NCC(N)=O [[D-Lys^6(AntrQ)]GnRH, [D-Lys^6(2-hydroxymethyl-anthra-quinone hemiglutarate)] GnRH]",Hydrophobicity (% B),[5],84 % B
same,increase of binding affinity to GnRH receptors compared to the parent peptide,[1],5 folds
same,biological activity relative to the parent peptide,[6],five-fold higher
same,growth of human breast and prostate cancer,[7],inhibited the growth
pGlu-His-Trp-Ser-Tyr-Gly-Leu-Arg-Pro-Gly-NH2 [GnRH],half-life time in the general circulation,[8],2 to 4 min
"CC(C)C[C@H](NC(=O)[C@@H](CCCCN)NC(=O)[C@H](Cc1ccc(O)cc1)NC(=O)[C@H](CO)NC(=O)[C@@H](Cc1c[nH]c2ccccc12)NC(=O)[C@@H](Cc1ccccc1)NC(=O)[C@H]1CCC(=O)N1)C(=O)N[C@@H](CCCNC(=N)N)C(=O)N1CCC[C@H]1C(=O)NCC(N)=O [[D-Lys^6]Antg, [D-Pyr^1, D-Phe^2, D-Trp^3, D-Lys^6]GnRH] ([d(pGlu)][dF][dW]SY[dK]LRPG-NH2)",IC50,[1],45 nM
"CC(C)C[C@H](NC(=O)[C@@H](CCCCNC(=O)CCNC1=C(Cl)C(=O)c2ccccc2C1=O)NC(=O)[C@H](Cc1ccc(O)cc1)NC(=O)[C@H](CO)NC(=O)[C@H](Cc1c[nH]c2ccccc12)NC(=O)[C@H](Cc1c[nH]cn1)NC(=O)[C@@H]1CCC(=O)N1)C(=O)N[C@@H](CCCNC(=N)N)C(=O)N1CCC[C@H]1C(=O)NCC(N)=O [[D-Lys^6(NQ)]GnRH, [D-Lys^6(N-(2-chloro-1,4-naphthoquinonyl)-β-alanyl)]GnRH]",Hydrophobicity (% B),[5],59 % B
same,increase of binding affinity to GnRH receptors compared to the parent peptide,[1],2 folds
CC(C)C[C@H](NC(=O)[C@@H](CCCCN)NC(=O)[C@H](Cc1ccc(O)cc1)NC(=O)[C@H](CO)NC(=O)[C@H](Cc1c[nH]c2ccccc12)NC(=O)[C@H](Cc1c[nH]cn1)NC(=O)[C@@H]1CCC(=O)N1)C(=O)N[C@@H](CCCNC(=N)N)C(=O)N1CCC[C@H]1C(=O)NCC(N)=O [[D-Lys^6]GnRH],Hydrophobicity (% B),[5],37 % B
same,increase in serum LH levels at higher dose,[9],larger increase in serum LH levels
"CC(C)C[C@H](NC(=O)[C@@H](CCCCNC(=O)c1cc(O)c2c(c1)C(=O)c1cc(O)cc(O)c1C2=O)NC(=O)[C@H](Cc1ccc(O)cc1)NC(=O)[C@H](CO)NC(=O)[C@@H](Cc1c[nH]c2ccccc12)NC(=O)[C@@H](Cc1ccccc1)NC(=O)[C@H]1CCC(=O)N1)C(=O)N[C@@H](CCCNC(=N)N)C(=O)N1CCC[C@H]1C(=O)NCC(N)=O [[D-Lys^6(Emo)]Antg, [D-Pyr^1, D-Phe^2, D-Trp^3, D-Lys^6(Emo)]GnRH] ([d(pGlu)][dF][dW]SY[dK](X1)LRPG-NH2)",binding affinity to GnRH receptors (in words),[1],lower binding affinity
same,IC50,[1],150 nM
[pGlu]HWSY[dK](Glutaryl(OAqm))LRPG-NH2 (Quinone conjugate of [D-Lys6]GnRH; also called [D-Lys^6(AntrQ)]GnRH; [D-Lys^6(AntQ)]GnRH) [[D-Lys^6(2-hydroxymethyl-anthraquinone hemiglutarate)]GnRH],IC50,[10],0.02 nM
"[pGlu]HWSY[dK](Emo)LRPG-NH2 (not fully specified; printed as [D-Lys^6(1,3,8-trihydroxy-6-carboxy-anthraquinone)]GnRH; reading uncertain, Emodic acid conjugate of [D-Lys6]GnRH, an agonist; also called [D-Lys^6(Emo)]GnRH; [D-(Emo)]GnRH) [[D-Lys^6(1,3,8-trihydroxy-6-carboxy-anthraquinone)]GnRH]",IC50,[10],0.25 nM
same,IC50,[11],2.6 nM
"[pGlu]HWSY[dK](NQ)LRPG-NH2 (Quinone conjugate of [D-Lys6]GnRH; also called [D-Lys^6(NQ)]GnRH) [[D-Lys^6(N-(2-chloro-1,4-naphthoquinonyl)-β-alanyl)]GnRH]",IC50,[10],0.09 nM

# Source: patent US20060100154A1, “Long-acting gonadotropin-releasing hormone analogs and methods of use thereof” (YEDA RESEARCH AND DEVELOPMENT CO, priority 2005, published 2006)
